The source of these data is article PMC3725993 (Bioorganic & medicinal chemistry letters, 2013).

The conditions of series [1]: rat behavioral model; cited from earlier work.
The nature of the next series: Water solubility. It counts as physicochemical. The following applies: statement in words.
The conditions of series [2]: rats; cited from earlier work.

As to `CN1[C@@H](CC(=O)c2ccccc2)CCC[C@H]1C[C@H](O)c1ccccc1` [(−)-Lobeline], the “rewarding effects of methamphetamine” value in series [1] was “decrease”.
As to `COc1ccc(CC[C@@H]2CC[C@H](CCc3ccc(OC)cc3)N2C[C@@H](O)CO)cc1.Cl` [Compound 11d], the water solubility entry in “Water solubility” was “water-soluble”.
On the same count and under the same terms, in the case of `Cl.OC[C@H](O)CN1[C@H](CCc2ccc(OC(F)F)cc2)CC[C@@H]1CCc1ccc(OC(F)F)cc1` [Compound 11f] it was “water-soluble”.
Consider `COc1ccc(CC[C@H]2CCC[C@@H](CCc3ccc(OC)cc3)N2C[C@@H](O)CO)cc1` [Compound 3], for which, in series [2], the “METH self-administration (SA) and reward” value was “blocked”; the responding for food entry is on record as “no effect”.
